Measurements as given in the NIST ThermoML archive (doi:10.1021/acs.jced.7b00381).
Numbers after ± are expanded uncertainties.

Settings: Fluid (supercritical or subcritical phases), isochoric method

FC(F)(F)/C=C/C(F)(F)F [trans-1,1,1,4,4,4-hexafluoro-2-butene]
Settings	mass density [kg/m3]
323.43 K, 579.7 kPa	1212.1 ± 4.9
333.44 K, 5332.4 kPa	1210.9 ± 4.9
333.46 K, 1305.2 kPa	1180.7 ± 4.7
343.44 K, 10088 kPa	1209.8 ± 4.9
343.45 K, 5602.3 kPa	1179.6 ± 4.7
353.44 K, 1232.2 kPa	1093.7 ± 6
353.44 K, 4087.2 kPa	1128.3 ± 4.5
353.46 K, 9911.4 kPa	1178.4 ± 4.7
363.43 K, 7766.9 kPa	1127.2 ± 4.5
363.44 K, 4495.7 kPa	1092.6 ± 4.4
363.45 K, 2343 kPa	1061.2 ± 4.3
373.43 K, 1203.4 kPa	83.9 ± 11
373.43 K, 1779.9 kPa	991.3 ± 14
373.44 K, 7789.6 kPa	1091.5 ± 4.4
373.46 K, 5302.7 kPa	1060.2 ± 4.3
383.41 K, 1661.4 kPa	129.2 ± 6.5
383.43 K, 2410.5 kPa	940.3 ± 4.4
383.44 K, 1263 kPa	83.9 ± 1
383.44 K, 4128.8 kPa	990.3 ± 4
383.46 K, 8290.7 kPa	1059.2 ± 4.3
393.42 K, 1764.3 kPa	129.1 ± 5.6
393.44 K, 1320.8 kPa	83.8 ± 0.9
393.44 K, 6524 kPa	989.3 ± 4
393.45 K, 2531 kPa	848.7 ± 4.2
393.45 K, 4410.6 kPa	939.4 ± 3.8
403.43 K, 1863.4 kPa	128.9 ± 1.9
403.43 K, 2784.5 kPa	594.5 ± 22
403.43 K, 3331.6 kPa	794.2 ± 3.6
403.44 K, 1377.2 kPa	83.7 ± 0.9
403.44 K, 2465.8 kPa	220.8 ± 4
403.44 K, 2774.4 kPa	460.7 ± 22
403.44 K, 2774.7 kPa	402.7 ± 28
403.44 K, 2776.5 kPa	535.5 ± 22
403.44 K, 4004.8 kPa	847.9 ± 3.4
403.44 K, 8946 kPa	988.4 ± 4
403.45 K, 2727.9 kPa	325 ± 23
403.45 K, 2855.7 kPa	688.4 ± 5.1
403.45 K, 3069.1 kPa	755.5 ± 4.3
403.45 K, 6453.8 kPa	938.5 ± 3.8
413.42 K, 1959.4 kPa	128.8 ± 1.6
413.42 K, 3461.5 kPa	594 ± 4.2
413.43 K, 3371.4 kPa	535 ± 6.3
413.43 K, 4600.2 kPa	793.4 ± 3.3
413.43 K, 5530.3 kPa	847.1 ± 3.4
413.44 K, 1432.9 kPa	83.6 ± 0.8
413.44 K, 2664.9 kPa	220.6 ± 1.7
413.44 K, 3213.6 kPa	402.3 ± 5.4
413.44 K, 3284.4 kPa	460.2 ± 7.2
413.44 K, 8521.8 kPa	937.6 ± 3.8
413.45 K, 3064.7 kPa	324.7 ± 3.9
413.45 K, 4177.9 kPa	754.8 ± 3.2
413.46 K, 3739.9 kPa	687.7 ± 3.5
423.42 K, 2053.6 kPa	128.7 ± 1
423.42 K, 3980.8 kPa	534.4 ± 3.6
423.42 K, 4173.8 kPa	593.4 ± 3.1
423.43 K, 1487.5 kPa	83.5 ± 0.8
423.43 K, 3786.7 kPa	459.8 ± 3.9
423.43 K, 5906.9 kPa	792.7 ± 3.2
423.44 K, 7088.7 kPa	846.2 ± 3.4
423.45 K, 2857.2 kPa	220.3 ± 2
423.45 K, 3387.7 kPa	324.4 ± 2.4
423.45 K, 3637.3 kPa	402 ± 3.2
423.45 K, 5329 kPa	754 ± 3.1
423.46 K, 4672.9 kPa	687 ± 3.1
433.42 K, 2146.1 kPa	128.6 ± 0.9
433.42 K, 4598 kPa	533.9 ± 2.9
433.42 K, 4900.8 kPa	592.8 ± 2.7
433.43 K, 1541.9 kPa	83.4 ± 0.7
433.43 K, 4284.4 kPa	459.3 ± 2.8
433.43 K, 4286.7 kPa	459.3 ± 2.8
433.43 K, 8666.9 kPa	845.4 ± 3.4
433.44 K, 3703.4 kPa	324.1 ± 2
433.44 K, 7237.5 kPa	791.9 ± 3.2
433.45 K, 3045.2 kPa	220.1 ± 1.4
433.45 K, 4055.4 kPa	401.6 ± 2.5
433.45 K, 5628.3 kPa	686.4 ± 2.9
433.45 K, 6506.9 kPa	753.3 ± 3.1
443.42 K, 1595.5 kPa	83.4 ± 0.7
443.42 K, 5218.7 kPa	533.4 ± 2.6
443.42 K, 5638.1 kPa	592.3 ± 2.6
443.43 K, 2237.3 kPa	128.4 ± 0.9
443.43 K, 4783.2 kPa	458.9 ± 2.4
443.44 K, 4469 kPa	401.2 ± 2.2
443.44 K, 7698.7 kPa	752.6 ± 3.1
443.44 K, 8584 kPa	791.1 ± 3.2
443.45 K, 3230.1 kPa	219.9 ± 1.3
443.45 K, 4013.8 kPa	323.8 ± 1.8
443.45 K, 6600.4 kPa	685.7 ± 2.8
453.42 K, 2327.6 kPa	128.3 ± 0.8
453.42 K, 5843.1 kPa	532.9 ± 2.4
453.42 K, 6380.9 kPa	591.7 ± 2.5
453.43 K, 1648.3 kPa	83.3 ± 0.7
453.44 K, 4319.3 kPa	323.4 ± 1.7
453.44 K, 5280.1 kPa	458.5 ± 2.2
453.44 K, 9941.5 kPa	790.4 ± 3.2
453.45 K, 3412.1 kPa	219.7 ± 1.2
453.46 K, 4880.1 kPa	400.8 ± 2
453.46 K, 7584.8 kPa	685 ± 2.8
453.46 K, 8905 kPa	751.8 ± 3.1
463.42 K, 1700 kPa	83.2 ± 0.7
463.42 K, 7127.1 kPa	591.1 ± 2.5
463.44 K, 2415.5 kPa	128.2 ± 0.8
463.44 K, 6468.5 kPa	532.4 ± 2.3
463.45 K, 5285.9 kPa	400.4 ± 1.9
463.45 K, 10115 kPa	751.1 ± 3
463.46 K, 3590.1 kPa	219.5 ± 1.1
463.46 K, 4621.8 kPa	323.1 ± 1.6
463.46 K, 5775.9 kPa	458 ± 2.1
463.47 K, 8574.6 kPa	684.4 ± 2.8
473.43 K, 7093.2 kPa	531.9 ± 2.3
473.43 K, 7877 kPa	590.5 ± 2.4
473.44 K, 1751.3 kPa	83.1 ± 0.6
473.45 K, 3766 kPa	219.3 ± 1.1
473.45 K, 4919.9 kPa	322.8 ± 1.5
473.45 K, 5690.2 kPa	400 ± 1.8
473.45 K, 6269.7 kPa	457.6 ± 2
473.46 K, 2503.4 kPa	128.1 ± 0.8
473.46 K, 9568.9 kPa	683.7 ± 2.8
483.43 K, 7718.7 kPa	531.4 ± 2.2
483.44 K, 6093 kPa	399.6 ± 1.8
483.44 K, 6761.7 kPa	457.1 ± 2
483.44 K, 8628.9 kPa	590 ± 2.4
483.45 K, 1803.6 kPa	83 ± 0.6
483.45 K, 5216.5 kPa	322.5 ± 1.5
483.46 K, 2590.8 kPa	128 ± 0.7
483.46 K, 3941.1 kPa	219.1 ± 1.1
493.42 K, 8344.4 kPa	530.8 ± 2.2
493.43 K, 2677.3 kPa	127.8 ± 0.7
493.44 K, 9378.9 kPa	589.4 ± 2.4
493.45 K, 1854.7 kPa	83 ± 0.6
493.46 K, 5509.7 kPa	322.2 ± 1.4
493.46 K, 6493.6 kPa	399.3 ± 1.7
493.46 K, 7253 kPa	456.7 ± 1.9
493.47 K, 4117.6 kPa	218.9 ± 1
503.44 K, 2763.1 kPa	127.7 ± 0.7
503.44 K, 8968.2 kPa	530.3 ± 2.2
503.45 K, 1906.1 kPa	82.9 ± 0.6
503.45 K, 7742.3 kPa	456.3 ± 1.9
503.45 K, 10130 kPa	588.8 ± 2.4
503.46 K, 6891.7 kPa	398.9 ± 1.7
503.47 K, 4290.5 kPa	218.7 ± 1
503.47 K, 5802.6 kPa	321.9 ± 1.4
513.42 K, 2848.4 kPa	127.6 ± 0.7
513.42 K, 8228 kPa	455.8 ± 1.9
513.43 K, 9591.2 kPa	529.8 ± 2.2
513.44 K, 1956.7 kPa	82.8 ± 0.6
513.46 K, 4460.3 kPa	218.4 ± 1
513.46 K, 7287.8 kPa	398.5 ± 1.7
513.47 K, 6092.7 kPa	321.6 ± 1.4
523.41 K, 2933.2 kPa	127.5 ± 0.7
523.41 K, 8713.2 kPa	455.4 ± 1.9
523.44 K, 6379.8 kPa	321.3 ± 1.4
523.44 K, 10213 kPa	529.3 ± 2.2
523.45 K, 2008.3 kPa	82.7 ± 0.6
523.45 K, 7680.8 kPa	398.1 ± 1.7
523.46 K, 4629.7 kPa	218.2 ± 1
